From ChEMBL document CHEMBL4483862, “Open-source discovery of chemical leads for next-generation chemoprotective antimalarials” (2018)

Test system: Plasmodium berghei
Assay: Luciferase/luciferin-expressing antifolate-resistant parasites were used to infect a culture of HepG2 cells that were pre-incubated with compounds. Infected hepatocytes emit light due to the luciferase reaction. Assay results are presented as the percent inhibition of light emission compared to control. […]
Assay type: functional
Conditions: sporozoite; for IC50: read-out: LUCIFERASE INFECTION ASSAY - IC50; for IC90: read-out: LUCIFERASE INFECTION ASSAY - IC90

SMILES | IC50 [µM] | IC90 [µM]
CC1CCN(CC(=O)Nc2cccc(C(=O)Nc3cccc(C(F)(F)F)c3)c2)CC1 | > 10 | > 10
CCN(C(=O)CSc1nc2cc(C(=O)O)ccc2c(=O)n1Cc1ccccc1)c1ccccc1 | > 10 | > 10
CCOc1ccc(/C=C/C(=O)C(C(N)=O)=C2SCCS2)cc1 | > 10 | > 10
COc1ccccc1/C=C(/CC(=O)NCc1ccc2c(c1)OCO2)c1nc2ccccc2s1 | > 10 | > 10
O=C(CN1C(=O)C(=O)N(C2CCCC2)C1=O)Nc1cc(Cl)ccc1[N+](=O)[O-] | > 10 | > 10
CCOc1cc(N2CCOCC2)c(OCC)cc1NC(=O)COc1ccc(-c2nnco2)cc1 | > 10 | > 10
CC(OC(=O)C1CC1)C(=O)Nc1ccnn1C(C)C (stereo unspecified) | > 10 | > 10
O=C(OCc1csc(-c2ccccc2)n1)c1ccccc1Sc1ccc(C(F)(F)F)cc1[N+](=O)[O-] | > 10 | > 10
C/C(N)=C(/C#N)C(=O)COC(=O)CCN1C(=O)C2CC=CCC2C1=O (stereo unspecified) | > 10 | > 10
N#Cc1cc(C(=O)c2cc(F)ccc2OC(=O)C2(c3ccccc3)CC2)cn(Cc2ccccc2)c1=O | > 10 | > 10
CCC(CC)c1nnc(NC(=O)/C=C/c2cn(-c3ccccc3)nc2-c2ccc(F)cc2)s1 | > 10 | > 10
O=[N+]([O-])c1cccc2nc(/C=C/c3nn(Cc4ccccc4)cc3-c3cccnc3)ccc12 | > 10 | > 10
Cc1cc(C)cc(N(C(=O)Cc2coc3cc(C)ccc23)c2nc(-c3ccc(F)cc3)cs2)c1 | > 10 | > 10
CCOc1ncccc1C(=O)NCC(c1ccc(OC)cc1)N1CCCCC1 (stereo unspecified) | > 10 | > 10
Cc1cccc(/C=C2\SC(=O)N(CCC(=O)Nc3ccc(-c4nnc5n4CCCCC5)cc3)C2=O)c1 | > 10 | > 10
COc1ccc(-c2nnc(SCC(=O)Nc3cc(-c4cc(C)c(C)cc4C)nn3-c3ccccc3)n2C(C)C)cc1 | > 10 | > 10
CC(=O)Nc1sc2c(c1C(=O)OCC(=O)Nc1cc(S(=O)(=O)N3CCOCC3)ccc1Cl)CCCC2 | > 10 | > 10
Cc1cc(C(C)(C)C)ccc1OC(=O)c1sc2nc3n(c(=O)c2c1C)CCCCC3 | > 10 | > 10
Cc1cc(O)c(CN2CCN(S(=O)(=O)/C=C/c3ccccc3)CC2)cc1C(C)C | > 10 | > 10
COCC(C)n1c(C)cc(C(=O)COC(=O)[C@@H]2CCCN2C(=O)c2cccs2)c1C (stereo partly specified) | > 10 | > 10
O=C1/C(=C\Nc2nnc(-c3ccccc3)c(-c3ccccc3)n2)c2ccccc2C(=O)N1c1cccc(C(F)(F)F)c1 | > 10 | > 10
CC(C)N(C(=O)CN1CCN(c2ccccc2Cl)CC1)c1ccc(Nc2ccccc2)cc1 | 4.84 | > 10
CCOc1ccc(OCc2ccc(C(=O)NNC3CC(=O)N(CCOC)C3=O)cc2)cc1 (stereo unspecified) | > 10 | > 10
CCCCC(=O)OCC(=O)Nc1nc(-c2ccc(C)cc2O)cs1 | > 10 | > 10
Cc1ccc(O)c(-c2cc(-c3ccccc3)c3ccccc3n2)c1 | > 10 | > 10
COc1ccc(CNC(=O)Cn2ncc(Cl)c(Cl)c2=O)cc1OC | > 10 | > 10

SMILES | IC50 [µM] | IC90 [µM]
C=CCN(CC(=O)NCc1ccc2c(c1)OCO2)S(=O)(=O)c1ccc(Cl)c(Cl)c1 | > 10 | > 10
CN(CC(=O)Nc1ccc(N2CCOCC2)cc1)Cn1nc(-c2cccs2)n(CC2CCCO2)c1=S (stereo unspecified) | > 10 | > 10
NC(=O)c1c(NC(=O)COC(=O)C2=NN(c3ccccc3)C(=O)CC2)sc2c1CCC2 | > 10 | > 10
CSCCC(NC(=O)c1ccc([N+](=O)[O-])cc1Cl)C(=O)OCC(=O)Nc1ccc(OC(F)(F)F)cc1 (stereo unspecified) | > 10 | > 10
O=C(COC(=O)c1cc(-c2ccc(Cl)cc2)nc2ccccc12)Nc1cc(C(F)(F)F)ccc1-n1cncn1 | > 10 | > 10
COc1ccc(Br)cc1/C=C/c1ccc2c([N+](=O)[O-])cccc2n1 | > 10 | > 10
Cc1cc(C)c(S(=O)(=O)N2CCN(C(=O)CCCOc3ccc(Cl)c(C)c3)CC2)c(C)c1 | > 10 | > 10
COc1cc(C(=O)NCC(c2ccco2)N2CCCCC2)ccc1Oc1ccc(Cl)cc1[N+](=O)[O-] (stereo unspecified) | 5.95 | > 10
COc1cccc(N2C(=O)CC(n3nc(Nc4cccc(C)c4)sc3=S)C2=O)c1 (stereo unspecified) | > 10 | > 10
FC(F)Sc1ccc(NC(=S)NCC(c2ccco2)N2CCCCC2)cc1 (stereo unspecified) | 6.18 | > 10
O=C(CN(Cc1ccco1)C(=O)c1ccc(-c2cccc(C(F)(F)F)c2)o1)Nc1ccccc1Br | > 10 | > 10
O=C(NNC(=O)c1ccccc1F)c1ccc(N2CCCC2=O)cc1 | > 10 | > 10
CCCn1c(SCC2=C(C(=O)OCC)C(C)NC(=O)N2)nc2sc3c(c2c1=O)CCC(C(C)(C)CC)C3 (stereo unspecified) | > 10 | > 10
Nn1c(SC2CCCCC2=O)nnc1C1CCCCC1 (stereo unspecified) | > 10 | > 10
COc1ccc(N2C(=O)/C(=C\NC3CCCCC3C)c3ccccc3C2=O)cc1OC (stereo unspecified) | > 10 | > 10
O=C(CN1CCN(C(=O)/C=C/c2ccccc2[N+](=O)[O-])CC1)Nc1ccc(Cl)c(C(F)(F)F)c1 | > 10 | > 10
CN(CCC#N)C(=S)NCCc1ccccc1 | > 10 | > 10
CN(C)CCNS(=O)(=O)c1ccc(Cl)c([N+](=O)[O-])c1 | > 10 | > 10
CCOC(=O)c1ccc2c(c1)nc(-c1ccc(Sc3ccc(C)cc3)c([N+](=O)[O-])c1)n2CC | > 10 | > 10
O=[N+]([O-])c1c[nH]c(-c2csc(-n3nccc3C(F)(F)F)n2)c1 | 1.82 | 4.09
CCCCCCc1nc(SCC(=O)Nc2cc(C)on2)c2c(=O)n(C)c(=O)n(CCC)c2n1 | > 10 | > 10
O=C(Cc1ccsc1)NNC(=O)c1cccc(S(=O)(=O)Nc2cccc(C(F)(F)F)c2)c1 | > 10 | > 10
CC(=O)Nc1ccc(Sc2ccc(S(C)(=O)=O)cc2[N+](=O)[O-])cc1 | > 10 | > 10
Cc1ccc(S(=O)(=O)N2CCCCC2)cc1NC(=O)C[N+]12CCN(CC1)CC2 | > 10 | > 10
O=C1CSC(=O)N1CCN=Cc1c(O)n(-c2ccc(Cl)cn2)c(=O)c2ccccc12 | > 10 | > 10
Cc1cc(C)cc(N(CCC#N)C(=O)CSc2nc3cc(Cl)ccc3c(=O)n2Cc2ccccc2)c1 | > 10 | > 10

SMILES | IC50 [µM] | IC90 [µM]
O=C(OCc1cccc2ccccc12)C1(c2ccccc2)CCN(S(=O)(=O)c2ccccc2)CC1 | 4.79 | > 10
O=C(c1cc(C(=O)N2CCCC2)c2nc3scc(-c4ccccc4)c3c(=O)n2c1)c1ccccc1O | > 10 | > 10
Cc1cc(C(=O)COn2nnc3ccc(S(=O)(=O)N4CCOCC4)cc32)c(C)n1C | > 10 | > 10
CCN(CC1COc2ccccc2O1)C(=O)c1ccccc1CSc1nc2nc(C)cc(C)n2n1 (stereo unspecified) | > 10 | > 10
COC(=O)c1ccc2c(=O)n(-c3ccccc3)c(SCC3CCCCO3)nc2c1 (stereo unspecified) | > 10 | > 10
COc1ccc(C)cc1N(CC(=O)Nc1ccccc1C(=O)NCCc1ccccc1)S(=O)(=O)c1ccccc1 | > 10 | > 10
Cc1ccc(CN(C)c2ccc([N+](=O)[O-])cc2Cl)o1 | > 10 | > 10
COc1cc2c(cc1NC(=O)C(C)N1CCN(C/C=C/c3ccccc3)CC1)oc1ccccc12 (stereo unspecified) | 9.73 | > 10
O=C(CCCSc1nc2ccccc2s1)Nc1ccc(S(=O)(=O)NC2=NCCCCC2)cc1 | > 10 | > 10
CCOc1cc(N2CCOCC2)c(OCC)cc1NC(=O)c1cc(Cl)c(OC)c(OC)c1 | > 10 | > 10
CCN1CCCC1CNCC(=O)Nc1cc(Cl)ccc1C#N (stereo unspecified) | > 10 | > 10
N#Cc1cc([N+](=O)[O-])ccc1Sc1nnc(C2COc3ccccc3O2)n1-c1ccccc1 (stereo unspecified) | > 10 | > 10
CCC1CCc2sc(C(=O)NN)cc2C1 (stereo unspecified) | > 10 | > 10
Cc1ccccc1/N=C1\SCC(C)(C)N1C(=O)c1ccccc1OCc1ccccc1 | > 10 | > 10
O=[N+]([O-])c1ccc2nc3c(c(-c4ccccc4)c2c1)CSc1ccccc1-3 | > 10 | > 10
CC(NC(=O)c1ccc(S(=O)(=O)C(F)F)cc1)C12CC3CC(CC(C3)C1)C2 (stereo unspecified) | > 10 | > 10
O=C(OCC(=O)N1CCN(C(=O)c2ccco2)CC1)c1cccc(NS(=O)(=O)c2ccc(F)c(F)c2)c1 | > 10 | > 10
O=[N+]([O-])c1cccc(-c2csc(-n3nccc3C(F)(F)F)n2)c1 | > 10 | > 10
COc1cccc(-n2c(=O)c3ccccc3n3c(SCc4cc(=O)n5ccsc5n4)nnc23)c1 | > 10 | > 10
Cc1nc2cc(Nc3nc(CN4CCOCC4)nc4scc(-c5ccccc5)c34)ccc2n1-c1ccccc1 | > 10 | > 10
COc1cc(/C=C/C(=O)OC(C(=O)c2c[nH]c3ccccc23)c2ccccc2)cc(OC)c1OC (stereo unspecified) | > 10 | > 10
COc1cccc(N(C)C(=O)c2nn(Cc3ccccc3)c(=O)c3ccccc23)n1 | > 10 | > 10
COC(=O)c1cc(C(=O)OCC(=O)NCCC2=CCCCC2)cc([N+](=O)[O-])c1 | > 10 | > 10
COc1ccccc1N(CCC#N)C(=O)COC(=O)/C=C/c1ccc(OC(F)F)cc1 | > 10 | > 10
COc1ccc(C(=O)Nc2cccc(/C=C/C(=O)c3ccc(C4CCCCC4)cc3)c2)cc1 | 7.51 | 9.2
COc1ccc2cc(-c3nc4ccc(Cl)cc4c(-c4ccccc4F)c3C)ccc2c1 | 6.1 | > 10
